In patent publication US11976084B2, “Spiropyrrolidine derived antiviral agents” (Enanta Pharmaceuticals, Inc., priority 2020, dated 2024) one finds IC50 data, which are given here for eight compounds.

Molecules are shown by their SMILES. pIC50: −log10 of the molar value.

The target of the assay is SARS-CoV-2 3CL-protease (Severe acute respiratory syndrome coronavirus 2, UniProt P0DTD1). Kind of assay: SARS-CoV-2 3C-like (3CL) protease fluorescence assay (FRET). Type of assay: biochemical. The settings on record: recombinant SARS-CoV-2 3CL-protease 10 nM, 30 min preincubation at RT, TAMRA-[…]-Dabcyl-OH substrate, run in duplicate. How it is done:
SARS-CoV-2 3C-like (3CL) protease fluorescence assay (FRET): Recombinant SARS-CoV-2 3CL-protease was expressed and purified. TAMRA-[…]-Dabcyl-OH peptide 3CLpro substrate was synthesized. Black, low volume, round-bottom, 384 well microplates were used. In a typical assay, 0.85 μL of test compound was dissolved in DMSO then incubated with SARS-CoV-2 3CL-protease (10 nM) in 10 μL assay buffer (50 mM HEPES [pH 7.5], 1 mM DTT, 0.01% BSA, 0.01% Triton-X 100) for 30 min at RT. Next, 10 μL of 3CL-protease substrate (40 μM) in assay buffer was added and the assays were monitored continuously for 1 h in an Envision multimode plate reader operating in fluorescence kinetics mode with excitation at 540 nm and emission at 580 nm at RT. No compound (DMSO only) and no enzyme controls were routinely included in each plate. All experiments were run in duplicate. Data Analysis: SARS-CoV-2 3CL-protease enzyme activity was measured as initial velocity of the linear phase (RFU/s) and normalized to controlled samples DMSO (100% activity) and no enzyme (0% activity) to determine percent residual activity at various concentrations of test compounds (0-10 μM). Data were fitted to normalized activity (variable slope) versus concentration fit in GraphPad Prism 7 to determine IC50.
For the compound `COc1cccc2[nH]c(C(=O)N3C[C@@H]4CCC[C@@H]4[C@H]3C(=O)N3C[C@]4(C[C@H]3C#N)C(=O)Nc3ccccc34)cc12` [Example 1], the pIC50 was over 7.00. In the case of `COc1cccc2[nH]c(C(=O)N3CC4(CC4)C[C@H]3C(=O)N3C[C@]4(C[C@H]3C#N)C(=O)Nc3ccccc34)cc12` [Example 2] it was 6.00 to 7.00; in that of `COc1cccc2oc(C(=O)N3C[C@H]4[C@@H]([C@H]3C(=O)N3C[C@]5(C[C@H]3C#N)C(=O)Nc3ccccc35)C4(C)C)cc12` [Example 3], over 7.00; in that of `COc1cccc2[nH]c(C(=O)N3C[C@@]4(C[C@H]3C(=O)N3C[C@]5(C[C@H]3C#N)C(=O)Nc3ccccc35)CC4(F)F)cc12` [Example 4], 6.00 to 7.00.

On to `COc1cccc2[nH]c(C(=O)N3[C@@H]4C[C@@H]4C[C@H]3C(=O)N3C[C@]4(C[C@H]3C#N)C(=O)Nc3ccccc34)cc12` [Example 5], for which the pIC50 is over 7.00.

As to `N#C[C@@H]1C[C@@]2(CN1C(=O)[C@@H]1[C@H]3CCC[C@H]3CN1C(=O)OCc1ccccc1)C(=O)Nc1ccccc12` [Example 6], the pIC50 was 6.00 to 7.00. In the case of `N#C[C@@H]1C[C@@]2(CN1C(=O)[C@@H]1[C@H]3CCC[C@H]3CN1C(=O)c1cc3c(F)cc(F)cc3[nH]1)C(=O)Nc1ccccc12` [Example 7] it was 6.00 to 7.00. Under `CC1(C)[C@@H]2[C@@H](C(=O)N3C[C@]4(C[C@H]3C#N)C(=O)Nc3ccccc34)N(C(=O)c3cc4c(OC(F)F)cccc4[nH]3)C[C@@H]21` [Example 8] stands 6.00 to 7.00.

One may read the pIC50 as −log10 of the IC50, conventionally taken in molar units.
